Data on 21 molecules can be found in patent publication US20230271969A1, “NITROGEN-CONTAINING FUSED RING DERIVATIVE INHIBITOR, PREPARATION METHOD THEREFOR AND USE THEREOF” (Shanghai Hansoh Biomedical Co., Ltd., priority 2020, published 2023).

The term IC50 denotes the midpoint of a concentration-inhibition curve.

Molecules are shown by their SMILES.

Experiment [1] deals with T1, NK3 receptors (Homo sapiens, UniProt P29371).
T1 construct: expressed in transfected cells
T1 sequence (P29371 1-465): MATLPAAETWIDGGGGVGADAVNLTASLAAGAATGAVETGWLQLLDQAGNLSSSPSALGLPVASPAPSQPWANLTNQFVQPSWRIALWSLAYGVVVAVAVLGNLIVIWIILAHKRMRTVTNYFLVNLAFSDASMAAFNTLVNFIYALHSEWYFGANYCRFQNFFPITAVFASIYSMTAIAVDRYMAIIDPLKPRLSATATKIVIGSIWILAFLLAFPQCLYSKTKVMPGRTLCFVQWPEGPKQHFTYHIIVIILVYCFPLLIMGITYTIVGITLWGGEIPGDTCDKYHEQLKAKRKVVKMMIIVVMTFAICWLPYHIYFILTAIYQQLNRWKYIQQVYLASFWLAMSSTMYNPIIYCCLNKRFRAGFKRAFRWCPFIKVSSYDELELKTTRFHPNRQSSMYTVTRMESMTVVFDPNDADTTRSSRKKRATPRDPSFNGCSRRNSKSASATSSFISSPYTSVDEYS
Put plainly: Calcium ion fluidity (FLIPR) in cells with stable expression of NK3 receptors. Type of experiment: cell-based. The following applies: calcium signal, antagonist mode, read-out: NK3R IC50 (nM) FLIPR. The text has this:
Determination of the Effect of the Compounds of the Present Invention on Calcium Ion Fluidity in Cells with Stable Expression of NK3 Receptors
Experimental objective: The objective of this test example was to determine the inhibitory effect of the compounds on NK3 receptors.
Experimental Methods: • 1. […] Probenecid and BSA were freshly added on the day of the experiment. The buffers for the experiments included dye buffer, compound dilution buffer and the like. • 2. […] The culture medium was discarded, and 20 μL of dye was added. The cells were incubated at 37° C. in the dark for 60 min, and then the calcium signal was read. • 4. The antagonist was prepared before the experiments. […] The plate was transferred to FLIPR, and 6× concentration of the agonist compound was added at 5 μL/well. The values were read and the data were saved by using FLIPR. The total assay volume was 30 μL, comprising 20 μL/well of dye buffer, 5 μL/well of 5× concentration of the experimental compound, and 5 μL/well of 6× concentration of the agonist compound.
The calcium signal value was read by FLIPR. The output of each sampling time point in the experiment was calculated as the ratio of the signals at wavelengths of 340/510 nm to 380/510 nm. The maximum minus minimum value was calculated from the ratio signal curve. The IC50 value of the compound was calculated by fitting the data of inhibition rate percentage and ten concentrations to the parametric nonlinear logistic equation by using GraphPad prism.

Experiment [2] deals with T1, NK3 receptors. Put plainly: Antagonism of IP1 in HEK293 cells with stable expression of NK3. Type of experiment: cell-based. As to conditions: agonist Senktide 3 nM, read-out: NK3R IC50 (nM) IP1. Here is the method: Determination of the Effect of the Compounds of the Present Invention on IP1 in HEK293 Cells with Stable Expression of NK3
The objective of this test example was to determine the antagonism effect of the compounds on the activity of HEK293-NK3 cells.
3. Experimental Methods: • 1. […] HEK293-NK3 cell line was cultured in complete medium and seeded in the coated dishes at 37° C., 5% CO2 until 70%˜90% confluence. • 3. […] The cells were digested and resuspended in 1× Stimulation Buffer (IP-ONE Gq Kit), seeded into the 384-well cell culture plate (which contained the compound to be tested) at 5,000 cells/well/5 μL by using Multidrop Combi. The culture plate was centrifuged at 300 rpm at room temperature for 60 seconds, and then incubated at 37° C., 5% CO2 for 15 minutes. • 5. The cell culture plate was taken out from the CO2 incubator. […] The culture plate was centrifuged at 300 rpm at room temperature for 60 seconds, and then incubated at 37° C., 5% CO2 for 2 hours. • 6. The cell culture plate was taken out from the CO2 incubator. 5 μL of IP1 d2 reagent and then 5 μL of IP1 Tb Cryptate Antibody reagent were added by using Multidrop Combi. The culture plate was centrifuged at room temperature at 300 rpm for 60 seconds, and left to stand at room temperature for 1 hour. • 7. The plate was read by using EnVision Multilabel Reader, and data were collected at the same time.
The fluorescence signal ratio (Ratio) was read and collected by EnVision Multilabel Reader. According to the readings of the Low control (DMSO control) and High control (p)ositive compound) experimental groups, the antagonism percentage data were calculated as {% antagonism=(Ratio sample−Ratio low control)/(Ratio high control−Ratio low control)×100}.

Regarding `C[C@@H]1c2nnc(-c3nc4ccccc4s3)n2CCN1C(=O)c1ccc(F)cc1` [Example 1, (R)-(3-(Benzo[d]thiazol-2-yl)-8-methyl-5,6-dihydro-[1,2,4]triazolo[4,3-a]pyrazin-7 (8H)-yl)(4-fluorophenyl)methanone], the IC50 at NK3 receptors [1] was found to be 76.2 nM.
In the case of `C[C@@H]1c2nnc(-c3nc4ccccc4s3)n2CCN1C(=O)c1ccc(Cl)c(Cl)c1` [Example 4, (R)-(3-(Benzo[d]thiazol-2-yl)-8-methyl-5,6-dihydro-[1,2,4]triazolo[4,3-a]pyrazin-7 (8H)-yl)(3,4-dichlorophenyl)methanone], the results for the IC50 on NK3 receptors [2] and at NK3 receptors [1] were 94.3 nM and 61.3 nM, respectively.
For `C[C@@H]1c2nnc(-c3nc4ccccc4s3)n2CCN1C(=O)c1ccc(-c2cccs2)cc1` [Example 5, (R)-(3-(Benzo[d]thiazol-2-yl)-8-methyl-5,6-dihydro-[1,2,4]triazolo[4,3-a]pyrazin-7 (8H)-yl)(4-(thien-2-yl)phenyl)methanone], the IC50 at NK3 receptors [1] amounted to 159 nM.
`C[C@@H]1c2nnc(-c3nc4cc(F)ccc4s3)n2CCN1C(=O)c1ccc(F)cc1` [Example 9, (R)-(3-(5-Fluorobenzo[d]thiazol-2-yl)-8-methyl-5,6-dihydro-[1,2,4]triazolo[4,3-a]pyrazin-7(8H)-yl)(4-fluorophenyl)methanone]: the IC50 at NK3 receptors [2] came out at 46 nM; at NK3 receptors [1], 33.3 nM.
For `C[C@@H]1c2nnc(-c3nc4cc(F)ccc4s3)n2CCN1C(=O)c1ccc(Cl)cc1` [Example 10, (R)-(4-Chlorophenyl)(3-(5-fluorobenzo[d]thiazol-2-yl)-8-methyl-5,6-dihydro-[1,2,4]triazolo[4,3-a]pyrazin-7(8H)-yl)methanone], in that order: 172 nM and 51.4 nM.
Taken in the same sequence, the figures for `C[C@@H]1c2nnc(-c3nc4cc(F)ccc4s3)n2CCN1C(=O)c1ccc(Cl)c(Cl)c1` [Example 11, (R)-(3,4-Dichlorophenyl)(3-(5-fluorobenzo[d]thiazol-2-yl)-8-methyl-5,6-dihydro-[1,2,4]triazolo[4,3-a]pyrazin-7(8H)-yl)methanone] were 176 nM and 47.5 nM.
Taken in the same sequence, the figures for `C[C@@H]1c2nnc(-c3nc4ccc(F)cc4s3)n2CCN1C(=O)c1ccc(F)cc1` [Example 12, (R)-(3-(6-Fluorobenzo[d]thiazol-2-yl)-8-methyl-5,6-dihydro-[1,2,4]triazolo[4,3-a]pyrazin-7(8H)-yl)(4-fluorophenyl)methanone] were 39.3 nM and 37 nM.
`C[C@@H]1c2nnc(-c3nc4ccc(F)cc4s3)n2CCN1C(=O)c1ccc(Cl)cc1` [Example 13, (R)-(4-Chlorophenyl)(3-(6-fluorobenzo[d]thiazol-2-yl)-8-methyl-5,6-dihydro-[1,2,4]triazolo[4,3-a]pyrazin-7(8H)-yl)methanone]: the IC50 came out at 131 nM on NK3 receptors [2] and 71.6 nM on NK3 receptors [1].
For `C[C@@H]1c2nnc(-c3nc4ccc(F)cc4s3)n2CCN1C(=O)c1ccc(Cl)c(Cl)c1` [Example 14, (R)-(3,4-Dichlorophenyl)(3-(6-fluorobenzo[d]thiazol-2-yl)-8-methyl-5,6-dihydro-[1,2,4]triazolo[4,3-a]pyrazin-7(8H)-yl)methanone], in that order: 41.9 nM and 97.6 nM.
Consider `C[C@@H]1c2nnc(-c3nc4c(F)cc(F)cc4s3)n2CCN1C(=O)c1ccc(Cl)cc1` [Example 16, (R)-(4-Chlorophenyl)(3-(4,6-difluorobenzo[d]thiazol-2-yl)-8-methyl-5,6-dihydro-[1,2,4]triazolo[4,3-a]pyrazin-7(8H)-yl)methanone], for which, on NK3 receptors [2], the IC50 was 146 nM.
In the case of `C[C@@H]1c2nnc(-c3nc4cc(F)cc(F)c4s3)n2CCN1C(=O)c1ccc(F)cc1` [Example 18, (R)-(3-(5,7-Difluorobenzo[d]thiazol-2-yl)-8-methyl-5,6-dihydro-[1,2,4]triazolo[4,3-a]pyrazin-7(8H)-yl)(4-fluorophenyl)methanone], at NK3 receptors [1], the IC50 is 130 nM.
Consider `C[C@@H]1c2nnc(-c3nc4ccc(Cl)nc4s3)n2CCN1C(=O)c1ccc(F)cc1` [Example 38], for which the IC50 at NK3 receptors [1] was determined as 247 nM.
The same measure, in the same setting: the same measure for `C[C@@H]1c2nnc(-c3nc4sccc4s3)n2CCN1C(=O)c1ccc(F)cc1` [Example 40, (R)-(4-Fluorophenyl)(8-methyl-3-(thieno[2,3-d]thiazol-2-yl)-5,6-dihydro-[1,2,4]triazolo[4,3-a]pyrazin-7(8H)-yl)methanone]: 298 nM.
The same measure, in the same setting: to `C[C@@H]1c2nnc(-c3nc4sccc4s3)n2CCN1C(=O)c1ccc(Cl)cc1` [Example 41, (R)-(4-Chlorophenyl)(8-methyl-3-(thieno[2,3-d]thiazol-2-yl)-5,6-dihydro-[1,2,4]triazolo[4,3-a]pyrazin-7(8H)-yl)methanone] belongs 224 nM; to `C[C@@H]1c2nnc(-c3nc4ccsc4s3)n2CCN1C(=O)c1ccc(Cl)c(Cl)c1` [Example 44, (R)-(3,4-Dichlorophenyl)(8-methyl-3-(thieno[3,2-d]thiazol-2-yl)-5,6-dihydro-[1,2,4]triazolo[4,3-a]pyrazin-7(8H)-yl)methanone], 255 nM.
On the same count and under the same terms, to `C[C@@H]1c2nnc(-c3cc4ccccn4n3)n2CCN1C(=O)c1ccc(Cl)c(Cl)c1` [Example 46, (R)-(3,4-Dichlorophenyl)(8-methyl-3-(pyrazolo[1,5-a]pyridin-2-yl)-5,6-dihydro-[1,2,4]triazolo[4,3-a]pyrazin-7(8H)-yl)methanone] belongs 107 nM; to `[2H]c1c([2H])c(C(=O)N2CCn3c(-c4nc(C([2H])([2H])[2H])ns4)nnc3[C@H]2C)c([2H])c([2H])c1F` [Example 50, (R)-(4-Fluorophenyl-2,3,5,6-d4)(8-methyl-3-(3-(methyl-d3)-1,2,4-thiadiazol-5-yl)-5,6-dihydro-[1,2,4]triazolo[4,3-a]pyrazin-7(8H)-yl)methanone], 147 nM.
Turning to `[2H]C([2H])([2H])N(c1nsc(-c2nnc3n2CCN(C(=O)c2ccc(F)cc2)[C@@H]3C)n1)C([2H])([2H])[2H]` [Example 106, (R)-(3-(3-(Bis(methyl-d3)amino)-1,2,4-thiadiazol-5-yl)-8-methyl-5,6-dihydro-[1,2,4]triazolo[4,3-a]pyrazin-7(8H)-yl)(4-fluorophenyl)methanone], at NK3 receptors [2], the IC50 stood at 129 nM.
On the same count and under the same terms, to `C[C@@H]1c2nnc(-c3nc(N(C)C4CC4)ns3)n2CCN1C(=O)c1ccc(F)cc1` [Example 115, (R)-(3-(3-(Cyclopropyl(methyl)amino)-1,2,4-thiadiazol-5-yl)-8-methyl-5,6-dihydro-[1,2,4]triazolo[4,3-a]pyrazin-7(8H)-yl)(4-fluorophenyl)methanone] belongs 76.6 nM; to `[2H]c1cc(C(=O)N2CCn3c(-c4nc(N5CC(F)C5)cs4)nnc3[C@H]2C)ccc1F` [Example 117, (R)-(3-(4-(3-Fluoroazetidin-1-yl)thiazol-2-yl)-8-methyl-5,6-dihydro-[1,2,4]triazolo[4,3-a]pyrazin-7(8H)-yl)(4-fluorophenyl-3-d)methanone], 116 nM.
The same measure, in the same setting: the same measure for `[2H]c1cc(C(=O)N2CCn3c(-c4nc(Cl)cs4)nnc3[C@H]2C)ccc1F` [Example 121, (R)-(3-(4-Chlorothiazol-2-yl)-8-methyl-5,6-dihydro-[1,2,4]triazolo[4,3-a]pyrazin-7 (8H)-yl)(4-fluorophenyl-3-d)methanone]: 132 nM.
